This experiment has as its target bilitranslocase (BTL) homologue. Kind of experiment: inhibition of electrogenic BSP uptake into pulp microsomes, spectrophotometric. The experiment is classed as biochemical, Vitis vinifera.

pKi: −log10 of the molar value.

Turning to `O=C1C[C@@H](c2ccc(O)c(O)c2)Oc2cc(O)cc(O)c21` [eriodictyol], the pKi was 4.12.

Regarding `O=c1c(O)c(-c2ccc(O)c(O)c2)oc2cc(O)cc(O)c12` [quercetin], the pKi is 4.01.

Broadly, the pKi is −log10 of the Ki, conventionally taken in molar units. Lower therefore signals a large Ki.

The record behind these values is article PMC2736896 (2009).
